# From patent US11051515B2, “3-acyl-benzamides and their use as herbicides” (Bayer Aktiengesellschaft, priority 2017, dated 2021)
# Tests used:
# AVEFA [1] = assay: Post-emergence action against AVEFA; assay type: in vivo, Avena fatua; details: post-emergence, dosage 80 g/ha, visual assessment about 3 weeks after treatment vs untreated controls
# Summary of the method: (§1)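 Post-emergence foliar spray on greenhouse plants at the one-leaf stage, using wettable-powder or emulsion-concentrate formulations in water (600 to […], plus 0.2% wetting agent). Damage scored by eye roughly 3 weeks later against untreated plants: 0% = like control, 100% = dead.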
# SETVI [2] = assay: Post-emergence action against SETVI; assay type: in vivo, Setaria viridis; details: post-emergence, dosage 80 g/ha, visual assessment about 3 weeks after treatment vs untreated controls
# Summary of the method: as §1
# STEME [3] = assay: Post-emergence action against STEME; assay type: in vivo, Stellaria media; details: post-emergence, dosage 80 g/ha
# Summary of the method: as §1
# ALOMY [4] = assay: Post-emergence action against ALOMY; assay type: in vivo, Alopecurus myosuroides; details: Dosage 80 g/ha, post-emergence
# Summary of the method: as §1
# MATIN [5] = assay: Post-emergence action against MATIN; assay type: in vivo, Matricaria inodora; details: post-emergence, dosage 80 g/ha, visual assessment about 3 weeks after treatment vs untreated controls
# Summary of the method: as §1
# LOLRI [6] = assay: Post-emergence action against LOLRI; assay type: in vivo, Lolium rigidum; details: dosage 80 g/ha, visual assessment about 3 weeks after treatment vs untreated controls
# Summary of the method: as §1
# VERPE [7] = assay: Pre-emergence action against VERPE; assay type: in vivo, Veronica persica; details: Dosage 320 g/ha, pre-emergence
# Summary of the method: (§2)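 Seeds sown in sandy loam in wood-fiber pots and covered with soil. Greenhouse growth; visual damage scored after 3 weeks versus untreated controls (100% = dead, 0% = like control).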
# POLCO [8] = assay: Pre-emergence action against POLCO; assay type: in vivo, Polygonum convolvulus; details: Dosage 320 g/ha, pre-emergence
# Summary of the method: as §2
# AMARE [9] = assay: Post-emergence action against AMARE; assay type: in vivo, Amaranthus retroflexus; details: post-emergence, dosage 80 g/ha, visual assessment about 3 weeks after treatment vs untreated controls
# Summary of the method: as §1
# AMARE [10] = assay: Pre-emergence action against AMARE; assay type: in vivo, Amaranthus retroflexus; details: pre-emergence, dosage 320 g/ha, scored visually after 3 weeks vs untreated controls
# Summary of the method: as §2
# ECHCG [11] = assay: Pre-emergence action against ECHCG; assay type: in vivo, Echinochloa crus-galli; details: pre-emergence, dosage 320 g/ha, scored visually after 3 weeks vs untreated controls
# Summary of the method: as §2
# CYPES [12] = assay: Post-emergence action against CYPES; assay type: in vivo, Cyperus esculentus; details: post-emergence, dosage 80 g/ha, visual assessment about 3 weeks after treatment vs untreated controls
# Summary of the method: as §1
# STEME [13] = assay: Pre-emergence action against STEME; assay type: in vivo, Stellaria media; details: Dosage 320 g/ha, pre-emergence
# Summary of the method: as §2
# VIOTR [14] = assay: Post-emergence action against VIOTR; assay type: in vivo, Viola tricolor; details: post-emergence, dosage 80 g/ha
# Summary of the method: as §1
# ABUTH [15] = assay: Pre-emergence action against ABUTH; assay type: in vivo, Abutilon theophrasti; details: pre-emergence, dosage 320 g/ha, scored visually after 3 weeks vs untreated controls
# Summary of the method: as §2
# PHBPU [16] = assay: Pre-emergence action against PHBPU; assay type: in vivo, Pharbitis purpurea; details: Dosage 320 g/ha, pre-emergence
# Summary of the method: as §2
# VIOTR [17] = assay: Pre-emergence action against VIOTR; assay type: in vivo, Viola tricolor; details: Dosage 320 g/ha, pre-emergence
# Summary of the method: as §2
# HORMU [18] = assay: Post-emergence action against HORMU; assay type: in vivo, Hordeum murinum; details: dosage 80 g/ha
# Method: Seeds of monocotyledonous and dicotyledonous weed and crop plants are laid out in sandy loam soil in wood-fiber pots, covered with soil and cultivated in a greenhouse under good growth conditions. 2 to 3 weeks after sowing, the test plants are treated at the one-leaf stage. The compounds of the invention, formulated in the form of wettable powders (WP) or as emulsion concentrates (EC), are then sprayed onto the green parts of the plants in the form of an aqueous suspension or emulsion at a water application rate equating to […], with addition of 0.2% wetting agent. After the test plants have been left to stand in the greenhouse under optimal growth conditions for about 3 weeks, the action of the preparations is assessed visually in comparison to untreated controls (herbicidal action in percent (%): 100% activity=the plants have died, 0% activity=like control plants). […] At the same time, inventive compounds leave Gramineae crops such as barley, wheat, rye, millet/Sorghum, corn or rice virtually undamaged when applied post-emergence, even at high active ingredient dosages. In addition, some substances are also harmless to dicotyledonous crops such as soya, cotton, oilseed rape, sugar beet or potatoes. Some of the compounds according to the invention have high selectivity and are therefore suitable for controlling unwanted vegetation in agricultural crops by the post-emergence method. The data of Tables B18 to B34 below illustrate, in an exemplary manner, the […] herbicidal action of the compounds according to the invention, the herbicidal activity being stated in percent.
# ALOMY [19] = assay: Pre-emergence action against ALOMY; assay type: in vivo, Alopecurus myosuroides; details: dosage 320 g/ha; pre-emergence; scored visually after 3 weeks vs untreated controls; 100% = plants have died, 0% = like control plants
# Summary of the method: as §2
# MATIN [20] = assay: Pre-emergence action against MATIN; assay type: in vivo, Matricaria inodora; details: Dosage 320 g/ha, pre-emergence
# Summary of the method: as §2
# ABUTH [21] = assay: Post-emergence action against ABUTH; assay type: in vivo, Abutilon theophrasti; details: post-emergence, dosage 80 g/ha, visual assessment about 3 weeks after treatment vs untreated controls
# Summary of the method: as §1
# AVEFA [22] = assay: Pre-emergence action against AVEFA; assay type: in vivo, Avena fatua; details: dosage 320 g/ha, scored visually after 3 weeks vs untreated controls
# Summary of the method: as §2
# VERPE [23] = assay: Post-emergence action against VERPE; assay type: in vivo, Veronica persica; details: dosage 80 g/ha
# Summary of the method: as §1
# HORMU [24] = assay: Pre-emergence action against HORMU; assay type: in vivo, Hordeum murinum; details: Dosage 320 g/ha
# Summary of the method: as §2
# SETVI [25] = assay: Pre-emergence action against SETVI; assay type: in vivo, Setaria viridis; details: pre-emergence, dosage 320 g/ha, scored visually after 3 weeks vs untreated controls
# Summary of the method: as §2
# CYPES [26] = assay: Pre-emergence action against CYPES; assay type: in vivo, Cyperus esculentus; details: pre-emergence, dosage 320 g/ha, scored visually after 3 weeks vs untreated controls
# Summary of the method: as §2
# LOLRI [27] = assay: Pre-emergence action against LOLRI; assay type: in vivo, Lolium rigidum; details: dosage 320 g/ha, scored visually after 3 weeks vs untreated controls
# Summary of the method: as §2
# POLCO [28] = assay: Post-emergence action against POLCO; assay type: in vivo, Polygonum convolvulus; details: post-emergence, dosage 80 g/ha
# Summary of the method: as §1
# PHBPU [29] = assay: Post-emergence action against PHBPU; assay type: in vivo, Pharbitis purpurea; details: post-emergence, dosage 80 g/ha
# Summary of the method: as §1
# ECHCG [30] = assay: Post-emergence action against ECHCG; assay type: in vivo, Echinochloa crus-galli; details: post-emergence, dosage 80 g/ha, visual assessment about 3 weeks after treatment vs untreated controls
# Summary of the method: as §1
# DIGSA [31] = assay: Post-emergence action against DIGSA; assay type: in vivo, Digitaria sanguinalis; details: dosage 80 g/ha, visual assessment about 3 weeks after treatment vs untreated controls
# Summary of the method: as §1
# DIGSA [32] = assay: Pre-emergence action against DIGSA; assay type: in vivo, Digitaria sanguinalis; details: dosage 320 g/ha, scored visually after 3 weeks vs untreated controls
# Summary of the method: as §2
SMILES,Post-emergence action against AVEFA (herbicidal action in percent) (AVEFA [1]) [%],Post-emergence action against SETVI (herbicidal action in percent) (SETVI [2]) [%],Post-emergence action against STEME (STEME [3]),Post-emergence action against ALOMY (ALOMY [4]) [%],Post-emergence action against MATIN (herbicidal action in percent) (MATIN [5]) [%],Pre-emergence action against VERPE (VERPE [7]) [%],Pre-emergence action against POLCO (POLCO [8]) [%],Post-emergence action against AMARE (herbicidal action in percent) (AMARE [9]) [%],Pre-emergence action against AMARE (herbicidal activity) (AMARE [10]) [%],Pre-emergence action against ECHCG (herbicidal activity) (ECHCG [11]) [%],Pre-emergence action against STEME (STEME [13]) [%],Post-emergence action against VIOTR (VIOTR [14]),Pre-emergence action against ABUTH (herbicidal activity) (ABUTH [15]) [%],Pre-emergence action against PHBPU (PHBPU [16]) [%],Pre-emergence action against VIOTR (VIOTR [17]) [%],Post-emergence action against HORMU (HORMU [18]),Pre-emergence action against ALOMY (herbicidal activity in percent) (ALOMY [19]) [%],Pre-emergence action against MATIN (MATIN [20]) [%],Post-emergence action against ABUTH (herbicidal action in percent) (ABUTH [21]) [%],Pre-emergence action against AVEFA (herbicidal activity) (AVEFA [22]) [%],also measured
CCn1nnnc1NC(=O)c1ccc(C(F)(F)F)c(C(=O)C2CC2)c1SC [2-60],80,100,100,100,90,100,100,100,100,100,100,100,100,100,100,100,100,100,100,100,"Post-emergence action against LOLRI (herbicidal action in percent) (LOLRI [6]): 90%; Post-emergence action against CYPES (herbicidal action in percent) (CYPES [12]): 90%; Post-emergence action against VERPE (VERPE [23]): 100; Pre-emergence action against HORMU (HORMU [24]): 100%; SETVI (Table B8, pre-emergence herbicidal activity) (SETVI [25]): 100%; Pre-emergence action against CYPES (herbicidal activity) (CYPES [26]): 100%; Pre-emergence action against LOLRI (herbicidal activity) (LOLRI [27]): 100%; Post-emergence action against POLCO (POLCO [28]): 90; Post-emergence action against PHBPU (PHBPU [29]): 100; Post-emergence action against ECHCG (herbicidal action in percent) (ECHCG [30]): 100%"
CCn1nnnc1NC(=O)c1ccc(C(F)(F)F)c(C(=O)C2CC2)c1C1CC1 [2-233],90,90,90,90,90,100,90,100,100,100,100,90,100,100,100,90,100,100,100,100,"Post-emergence action against DIGSA (herbicidal action in percent) (DIGSA [31]): 90%; Pre-emergence action against DIGSA (herbicidal activity) (DIGSA [32]): 100%; Post-emergence action against VERPE (VERPE [23]): 100; Pre-emergence action against HORMU (HORMU [24]): 90%; SETVI (Table B8, pre-emergence herbicidal activity) (SETVI [25]): 100%; Pre-emergence action against LOLRI (herbicidal activity) (LOLRI [27]): 90%; Post-emergence action against POLCO (POLCO [28]): 80; Post-emergence action against PHBPU (PHBPU [29]): 90; Post-emergence action against ECHCG (herbicidal action in percent) (ECHCG [30]): 90%"
